Reference: publication PMC11873611 (Acta Pharmaceutica Sinica. B, 2024)
Where a chain is given by its changes, count along the chain named.

Legend:
[1] = target: T1, PGAM5 (Homo sapiens, UniProt Q96HS1); assay: SPR; format: binding
T1 sequence (Q96HS1 22-289): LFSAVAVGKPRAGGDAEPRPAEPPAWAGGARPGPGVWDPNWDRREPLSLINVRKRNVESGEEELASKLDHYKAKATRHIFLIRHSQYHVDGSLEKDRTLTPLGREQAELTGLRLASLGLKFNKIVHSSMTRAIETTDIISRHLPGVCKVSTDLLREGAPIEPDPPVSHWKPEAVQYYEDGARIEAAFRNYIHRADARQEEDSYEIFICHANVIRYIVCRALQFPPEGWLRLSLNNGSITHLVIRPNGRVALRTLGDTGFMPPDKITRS

[2] = target: T2, PGAM5 (Mus musculus, UniProt Q8BX10); assay: DARTS, CETSA and SIP target engagement in BMDMs; format: cell-based
T2 sequence (Q8BX10 1-288): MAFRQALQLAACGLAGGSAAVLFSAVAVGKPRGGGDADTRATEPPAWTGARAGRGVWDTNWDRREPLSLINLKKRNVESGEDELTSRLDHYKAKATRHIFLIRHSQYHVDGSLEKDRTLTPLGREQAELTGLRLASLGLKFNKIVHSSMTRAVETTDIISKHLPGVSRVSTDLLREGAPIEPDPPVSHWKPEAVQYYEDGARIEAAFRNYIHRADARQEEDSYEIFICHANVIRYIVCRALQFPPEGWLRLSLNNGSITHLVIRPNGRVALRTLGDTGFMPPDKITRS

[3] = target: T3, PGAM5 (Homo sapiens, UniProt Q96HS1, C229A); assay: in vitro PGAM5 phosphatase assay; format: biochemical
T3 sequence (Q96HS1 22-289 C229A): T1 sequence (Q96HS1 22-289) with C208A

[4] = target: T4, PGAM5 (Homo sapiens, UniProt Q96HS1, C168A); assay: in vitro PGAM5 phosphatase assay; format: biochemical
T4 sequence (Q96HS1 22-289 C168A): T1 sequence (Q96HS1 22-289) with C147A

[5] = target: T1, PGAM5; assay: SPR; format: binding; remark: listed apart in the source

| Compound | Kd [1] | DARTS, CETSA and SIP target engagement in BMDMs [2] | in vitro PGAM5 phosphatase assay (phosphopeptide, BIOMOL Green) [3] | in vitro PGAM5 phosphatase assay (phosphopeptide, BIOMOL Green) [4] | SPR (Fig. S9L and S9M) [5] |
| --- | --- | --- | --- | --- | --- |
| O=C1O[C@H]2[C@@H]3OC(=O)c4cc(O)c(O)c(O)c4-c4c(O)c(O)c5oc(=O)c6c(c(O)c(O)c7oc(=O)c4c5c76)-c4c(cc(O)c(O)c4O)C(=O)OC[C@H]3OC(O)[C@@H]2OC(=O)c2cc(O)c(O)c(O)c2-c2c1cc(O)c(O)c2O (mixture of isomers) [punicalagin] | ~0.3 nM | punicalagin significantly restrained the proteolysis of PGAM5 by pronase, further supporting that punicalagin could bind to PGAM5 in BMDMs | punicalagin still inhibited the phosphatase activity of PGAM5 C168A or C229A protein mutant | punicalagin still inhibited the phosphatase activity of PGAM5 C168A or C229A protein mutant |  |
| O=C1OC[C@H]2OC(O)[C@H](O)[C@@H](O)[C@@H]2OC(=O)c2cc(O)c(O)c(O)c2-c2c(O)c(O)c3oc(=O)c4c(c(O)c(O)c5oc(=O)c2c3c54)-c2c1cc(O)c(O)c2O (mixture of isomers) [punicalin] |  |  |  |  | there was a similar direct interaction between punicalin and ΔN21 PGAM5 or ΔN90 PGAM5 compared with punicalagin |
